# In patent publication US20130281398A1, “TREATMENT OF DISEASES BY EPIGENETIC REGULATION” (RVX Therapeutics Inc., priority 2012, published 2013):
# Tested on: IL-6
# Test: not given
# Details: in vivo; cited from earlier work
row,SMILES,IL-6 expression
1,CCNC(=O)C[C@@H]1N=C(c2ccc(Cl)cc2)c2cc(OC)ccc2-n2c(C)nnc21 [I-BET],decrease IL-6 expression

# Target: T1, Brd4 bromodomain 1 (Homo sapiens, UniProt O60885)
# T1 construct: Illustrative results with the first bromodomain of Brd4; made in house; host or cells: E. coli BL21(DE3)
# Test: TR-FRET inhibition of tetra-acetylated histone H4 binding to Brd4 bromodomain 1
# Details: tetra-acetylated histone H4 peptide and Brd4 bromodomain 1, 2 hours at room temperature
# Protocol: Proteins were cloned and overexpressed with a N-terminal 6×His tag, then purified by nickel affinity followed by size exclusion chromatography. Briefly, E. coli BL21(DE3) cells were transformed with a recombinant expression vector encoding N-terminally Nickel affinity tagged bromodomains from Brd2, Brd3, Brd4. Cell cultures were incubated at 37° C. with shaking to the appropriate density and induced overnight with IPTG. The supernatant of lysed cells was loaded onto Ni-IDA column for purification. Eluted protein was pooled, concentrated and further purified by size exclusion chromatography. Fractions representing monomeric protein are pooled, concentrated, aliquoted, and frozen at −80° C. for use in subsequent experiments.
# Binding of tetra-acetylated histone H4 and BET bromodomains was confirmed by a Time Resolved Fluorescence Resonance Energy Transfer (TR-FRET) method. N-terminally His-tagged bromodomains (200 nM) and biotinylated tetra-acetylated histone H4 peptide (25-50 nM, Millipore) were incubated in the presence of Europium Cryptate-labeled streptavidin (Cisbio Cat. #610SAKLB) and XL665-labeled monoclonal anti-His antibody (Cisbio Cat. #61 HISXLB) in a white 96 well microtiter plate (Greiner). For inhibition assays, serially diluted test compound was added to these reactions in a 0.2% final concentration of DMSO. Final buffer concentrations were 30 mM HEPES pH 7.4, 30 mM NaCl, 0.3 mM CHAPS, 20 mM phosphate pH 7.0, 320 mM KF, 0.08% BSA). After 2 hours incubation at room temperature, the fluorescence by FRET was measured at 665 and 620 nm by a SynergyH4 plate reader (Biotek). The binding inhibitory activity was shown by a decrease in 665 nm fluorescence relative to 620 nm. IC50 values were determined from a dose response curve.
row,FRET activity (<50 uM),SMILES
1,Active,"COc1cc(OC)c2c(=O)[nH]c(-c3cc(C)c(OCCN(C)C)c(C)c3)nc2c1 [Example 40, 2-(4-(2-(dimethylamino)ethoxy)-3,5-dimethylphenyl)-5,7-dimethoxyquinazolin-4(3H)-one]"
2,Active,"COc1cc(OC)c2c(=O)[nH]c(-c3cc(C)c(OCCN(C)C(C)=O)c(C)c3)nc2c1 [Example 41, N-(2-(4-(5,7-dimethoxy-4-oxo-3,4-dihydroquinazolin-2-yl)-2,6-dimethylphenoxy)ethyl)-N-methylacetamide]"
3,Active,"COc1cc(OC)c2c(=O)[nH]c(-c3cc(C)c(OCCNC=O)c(C)c3)nc2c1 [Example 42, N-(2-(4-(5,7-dimethoxy-4-oxo-3,4-dihydroquinazolin-2-yl) 2,6-dimethylphenoxy)ethyl)formamide]"
4,Active,"COc1cc(OC)c2c(=O)[nH]c(-c3cc(C)c(OCCN(C)C=O)c(C)c3)nc2c1 [Example 43, N-(2-(4-(5,7-dimethoxy-4-oxo-3,4-dihydroquinazolin-2-yl) 2,6-dimethylphenoxy)ethyl)-N-methylformamide]"
5,Active,"COc1cc(OC)c2c(=O)[nH]c(-c3cc(C)c(OCCNS(=O)(=O)N(C)C)c(C)c3)nc2c1 [Example 44, N-(2-(4-(5,7-dimethoxy-4-oxo-3,4-dihydroquinazolin-2-yl)-2,6-dimethylphenoxy)ethyl)dimethylamino-N-sulfonamide]"
6,Active,"COc1cc(OC)c2c(=O)[nH]c(-c3cc(C)c(OCCNC#N)c(C)c3)nc2c1 [Example 45, N-(2-(4-(5,7-dimethoxy-4-oxo-3,4-dihydroquinazolin-2-yl) 2,6-dimethylphenoxy)ethyl)cyanamide]"
7,Active,"COc1cc(OC)c2c(=O)[nH]c(-c3cc(C)c(OCCNc4cc(C)on4)c(C)c3)nc2c1 [Example 46, 2-(3,5-dimethyl-4-(2-(5-methylisoxazol-3-ylamino)ethoxy)phenyl)-5,7-dimethoxyquinazolin-4(3H)-one]"
8,Inactive,"COc1cc(OC)c2c(=O)[nH]c(-c3cc(C)c(OCCNc4ncccn4)c(C)c3)nc2c1 [Example 47, 2-(3,5-dimethyl-4-(2-(pyrimidin-2-ylamino)ethoxy)phenyl)-5,7-dimethoxyquinazolin-4(3H)-one]"
9,Active,"COc1cc(OC)c2c(=O)[nH]c(-c3cc(C)c(OCCNc4ccon4)c(C)c3)nc2c1 [Example 48, 2-(4-(2-(isoxazol-3-ylamino)ethoxy)-3,5-dimethylphenyl)-5,7-dimethoxyquinazolin-4(3H)-one]"
10,Inactive,"COc1cc(OC)c2c(=O)[nH]c(-c3cc(C)c(OCCNc4nc(OC)cc(OC)n4)c(C)c3)nc2c1 [Example 49, 2-(4-(2-(4,6-dimethoxypyrimidin-2-ylamino)ethoxy)-3,5-dimethylphenyl)-5,7-dimethoxyquinazolin-4(3H)-one]"
11,Active,"COc1cc(OC)c2c(=O)[nH]c(-c3cc(OC)c(CCCO)c(OC)c3)nc2c1 [Example 50, 2-[4-(3-hydroxy-propyl)-3,5-dimethoxyphenyl]-5,7-dimethoxy-3H-quinazolin-4-one]"
12,Active,"COc1cc(OC)c2c(=O)[nH]c(-c3ccc(CCCO)c(OC)c3)nc2c1 [Example 51, 2-[4-(3-hydroxy-propyl)-3-methoxy-phenyl]-5,7-dimethoxy-3H-quinazolin-4-one]"
13,Active,"COc1cc(OC)c2c(=O)[nH]c(-c3ccc4cc(CCO)[nH]c4c3)nc2c1 [Example 52, 2-[2-(2-hydroxyethyl)-1H-indol-6-yl]-5,7-dimethoxy-3H-quinazolin-4-one]"
